Experimental data as given in BigSolDB 2.1.

Cc1nc(CCl)nc2ccccc12
solubility (mole fraction)
Conditions	in THF	in acetone	in acetonitrile	in cyclohexane	in ethanol	in ethyl acetate	in isopropanol	in n-butanol	in n-hexane	in n-propanol
281.15 K	0.229	0.107	0.0488	0.0193	0.061	0.105	0.0429	0.05	0.00825	0.134
286.15 K	0.264	0.142	0.0692	0.0266	0.0771	0.136	0.0569	0.063	0.0115	0.145
291.15 K	0.297	0.188	0.096	0.0361	0.0969	0.173	0.0748	0.081	0.0146	0.158
296.15 K	0.339	0.244	0.13	0.0484	0.123	0.217	0.0964	0.101	0.019	0.172
301.15 K	0.374	0.297	0.174	0.0639	0.152	0.266	0.123	0.125	0.0232	0.186
306.15 K	0.411	0.373	0.22	0.0832	0.183	0.32	0.156	0.153	0.0289	0.201
311.15 K	0.452	0.449	0.276	0.107	0.219	0.378	0.196	0.186	0.0372	0.217
316.15 K	0.492	0.531	0.34	0.135	0.257	0.44	0.245	0.225	0.0476	0.234
321.15 K	0.528	0.603	0.411	0.168	0.297	0.503	0.304	0.27	0.0598	0.253
326.15 K	0.563	0.676	0.488	0.207	0.337	0.567	0.394	0.319	0.0751	0.273
331.15 K	0.604	0.74	0.559	0.249	0.389	0.63	0.467	0.361	0.093	0.294
